Patent publication US20210053957A1, “HERBICIDAL COMPOUNDS” (SYNGENTA PARTICIPATIONS AG, priority 2018, published 2021)
Counter-ions that a name gives are not always drawn.

Key:
Assay in all cases: Post-emergence efficacy, glasshouse spray test
Type in all cases: in vivo
Setaia fabei (SETFA) = conditions: Application Rate 500 g/Ha, evaluated after 13 days; for pest or weed control at 500 g/ha: Setaria faberi, post-emergence, 312 h, read-out: Control of weed species after post-emergence application, SETFA (100=total damage to plant; 0=no damage to plant)
Summary of the method: (§1)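 Visual damage rating (0 = no damage, 100 = total damage) taken 13 days after a post-emergence spray. Plants had grown 14 days in pots under 24/16° C, 14 h light, 65% humidity before treatment.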

[1] = test system: Echinochloa crus-galli (ECHCG); conditions: Application Rate 500 g/Ha, evaluated after 13 days; for pest or weed control at 500 g/ha: Echinochloa crus-galli, post-emergence, 312 h, read-out: Control of weed species after post-emergence application, ECHCG (100=total damage to plant; 0=no damage to plant)
Summary of the method: as §1

Eleusine indica (ELEIN) = conditions: Application Rate 500 g/Ha, evaluated after 13 days; for pest or weed control at 500 g/ha: Eleusine indica, post-emergence, 312 h, read-out: Control of weed species after post-emergence application, ELEIN (100=total damage to plant; 0=no damage to plant)
Summary of the method: as §1

[2] = test system: Amaranthus palmeri (AMAPA); conditions: Application Rate 500 g/Ha, evaluated after 13 days; for pest or weed control at 500 g/ha: Amaranthus palmeri, post-emergence, 312 h, read-out: Control of weed species after post-emergence application, AMAPA (100=total damage to plant; 0=no damage to plant)
Summary of the method: as §1

[3] = test system: Euphorbia heterophylla (EPHHL); conditions: Application Rate 500 g/Ha, evaluated after 13 days; for pest or weed control at 500 g/ha: Euphorbia heterophylla, post-emergence, 312 h, read-out: Control of weed species after post-emergence application, EPHHL (100=total damage to plant; 0=no damage to plant)
Summary of the method: as §1

[4] = test system: Ipomoea hederacea (IPOHE); conditions: Application Rate 500 g/Ha, evaluated after 13 days; for pest or weed control at 500 g/ha: Ipomoea hederacea, post-emergence, 312 h, read-out: Control of weed species after post-emergence application, IPOHE (100=total damage to plant; 0=no damage to plant)
Summary of the method: as §1

[5] = test system: Digitaria sanguinalis (DIGSA); conditions: Application Rate 500 g/Ha, evaluated after 13 days; for pest or weed control at 500 g/ha: Digitaria sanguinalis, post-emergence, 312 h, read-out: Control of weed species after post-emergence application, DIGSA (100=total damage to plant; 0=no damage to plant)
Summary of the method: as §1

Lolium perenne (LOLPE) = conditions: Application Rate 500 g/Ha, evaluated after 13 days; for pest or weed control at 500 g/ha: Lolium perenne, post-emergence, 312 h, read-out: Control of weed species after post-emergence application, LOLPE (100=total damage to plant; 0=no damage to plant)
Summary of the method: as §1

[6] = test system: Chenopodium album (CHEAL); conditions: Application Rate 500 g/Ha, evaluated after 13 days; for pest or weed control at 500 g/ha: Chenopodium album, post-emergence, 312 h, read-out: Control of weed species after post-emergence application, CHEAL (100=total damage to plant; 0=no damage to plant)
Summary of the method: as §1

| SMILES | pest or weed control at 500 g/ha (Setaia fabei (SETFA)) [%] | pest or weed control at 500 g/ha [1] [%] | pest or weed control at 500 g/ha (Eleusine indica (ELEIN)) [%] | pest or weed control at 500 g/ha [2] [%] | pest or weed control at 500 g/ha [3] [%] | pest or weed control at 500 g/ha [4] [%] | pest or weed control at 500 g/ha [5] [%] | pest or weed control at 500 g/ha (Lolium perenne (LOLPE)) [%] | pest or weed control at 500 g/ha [6] [%] | Control of weed species after post-emergence application, SETFA (100=total damage to plant; 0=no damage to plant) (Setaia fabei (SETFA)) | Control of weed species after post-emergence application, ECHCG (100=total damage to plant; 0=no damage to plant) [1] | Control of weed species after post-emergence application, ELEIN (100=total damage to plant; 0=no damage to plant) (Eleusine indica (ELEIN)) | Control of weed species after post-emergence application, AMAPA (100=total damage to plant; 0=no damage to plant) [2] | Control of weed species after post-emergence application, EPHHL (100=total damage to plant; 0=no damage to plant) [3] | Control of weed species after post-emergence application, IPOHE (100=total damage to plant; 0=no damage to plant) [4] | Control of weed species after post-emergence application, DIGSA (100=total damage to plant; 0=no damage to plant) [5] | Control of weed species after post-emergence application, LOLPE (100=total damage to plant; 0=no damage to plant) (Lolium perenne (LOLPE)) | Control of weed species after post-emergence application, CHEAL (100=total damage to plant; 0=no damage to plant) [6] |
| --- | --- | --- | --- | --- | --- | --- | --- | --- | --- | --- | --- | --- | --- | --- | --- | --- | --- | --- |
| C=C/N=C(\OC)c1cc[n+](C(C)C(=O)OC)nc1 (stereo not drawn) [Compound A93] | 40 | 30 | 30 | 0 | 10 | 20 | 50 | 10 | 0 |  |  |  |  |  |  |  |  |  |
| COc1cc(-c2cc[n+](CCC(=O)O)nc2)sn1 [Compound A33] | 30 | 20 | 50 | 100 | 80 | 10 | 70 | 30 | 70 |  |  |  |  |  |  |  |  |  |
| O=S(=O)([O-])OCC[n+]1ccc(-c2ncno2)cn1 [Compound A8, 2-[4-(1,2,4-oxadiazol-5-yl)pyridazin-1-ium-1-yl]ethyl sulfate] | 40 | 50 | 20 | 10 | 30 | 30 | 50 | 10 | 10 |  |  |  |  |  |  |  |  |  |
| O=C(O)CC[n+]1ccc(-c2cscn2)cn1 [Compound A100] | 30 | 30 | 30 | 0 | 30 | 20 | 40 | 10 | 0 |  |  |  |  |  |  |  |  |  |
| O=S(=O)([O-])CC[n+]1ccc(-c2ccoc2)cn1 [Compound A42] | 10 | 10 | 20 | 20 | 30 | 20 | 20 | 0 | 40 |  |  |  |  |  |  |  |  |  |
| O=P(O)(O)C[n+]1ccc(-c2ncco2)cn1 [Compound A102] |  |  |  |  |  |  |  |  |  | 60 | 70 | 30 | 100 | 90 | 60 | 60 | 10 | 90 |
| O=C(O)CC[n+]1ccc(-c2ncsn2)cn1 [Compound A142, 3-[4-(1,2,4-thiadiazol-3-yl)pyridazin-1-ium-1-yl]propanoic acid 2,2,2-trifluoroacetate] | 90 | 100 | 100 | 100 | 100 | 30 | 100 | 90 | 90 |  |  |  |  |  |  |  |  |  |
| Cn1nncc1-c1cc[n+](CCS(=O)(=O)[O-])nc1 [Compound A49] | 60 | 60 | 60 | 100 | 90 | 70 | 70 | 40 | 100 |  |  |  |  |  |  |  |  |  |
| O=S(=O)([O-])CCC[n+]1ccc(-c2nnco2)cn1 [Compound A7] | 10 | 10 | 20 | 0 | 20 | 10 | 30 | 10 | 0 |  |  |  |  |  |  |  |  |  |
| CC(C(=O)O)[n+]1ccc(-c2ncco2)cn1 (stereo not drawn) [Compound A90] | 10 | 10 | 10 | 20 | 20 | 10 | 10 | 0 | 20 |  |  |  |  |  |  |  |  |  |
| COC(=O)C[n+]1ccc(-c2ncn(C)n2)cn1 [Compound A87] | 40 | 50 | 80 | 80 | 80 | 10 | 90 | 0 | 20 |  |  |  |  |  |  |  |  |  |
| O=S(=O)([O-])CC[n+]1ccc(-c2cscn2)cn1 [Compound A61] | 70 | 50 | 60 | 100 | 40 | 20 | 80 | 30 | 70 |  |  |  |  |  |  |  |  |  |
| O=S(=O)(O)CCCC[n+]1ccc(-c2ncco2)cn1 [Compound A68] |  |  |  |  |  |  |  |  |  | 80 | 60 | 70 | 100 | 90 | 50 | 70 | 70 | 90 |
| O=S(=O)([O-])N1CCCC1C[n+]1ccc(-c2ncco2)cn1 (stereo not drawn) [Compound A101] | 60 | 40 | 30 | 70 | 70 | 40 | 70 | 20 | 60 |  |  |  |  |  |  |  |  |  |
| O=S(=O)([O-])CCC[n+]1ccc(-c2nccs2)cn1 [Compound A116] | 60 | 60 | 80 | 100 | 70 | 20 | 60 | 80 | 40 |  |  |  |  |  |  |  |  |  |
| Cn1ccnc1-c1cc[n+](CCC(=O)O)nc1 [Compound A31, 3-[4-(1-methylimidazol-2-yl)pyridazin-1-ium-1-yl]propanoic acid; 2,2,2-trifluoroacetate] | 60 | 40 | 50 | 30 | 30 | 10 | 50 | 20 | 20 |  |  |  |  |  |  |  |  |  |
